Assay results reported in patent US20250127813A1, “COMBINATION DRUG” (OTSUKA PHARMACEUTICAL CO., LTD., priority 2021, published 2025).
Entries after “also recorded” stand apart in the source; their conditions may differ. Like-named read-outs stand apart in the source and are kept apart here.

Columns and labels:
NALM6-luc2 [1] = test system: NALM6-luc2
Protocol: 6-week-old NOG mice produced by In-Vivo Science Co., Ltd., were obtained, and tumor cells were intravenously transplanted into the mice at 7 weeks of age to prepare tumor-bearing mice. The day before the transplantation, busulfex (BSF) was intraperitoneally administered at 20 mg/kg. During the breeding period, the mice were housed with 5 mice per group and bred in a P2A breeding room set to a temperature of 24° C. (actual measurement: 19.7 to 25.0° C.), humidity of 50% (actual measurement: 38.6 to 58.5%), and illumination of 12 hours/day (8:00 a.m. to 8:00 p.m.). During the breeding period, the mice were allowed free access to radiation-sterilized solid feed for mice (CL-2, produced by Clea Japan, Inc.) and autoclave-sterilized tap water placed in a water bottle.
CD19 CAR-T cells were intravenously administered once according to the group constitution on the same day as grouping. The IAP antagonist also started to be administered on the same day as grouping and was orally or intravenously administered according to the group constitution table.
The evaluation period was set to 3 to 4 weeks. Grouping and pharmacological evaluation were performed based on tumor luminescence values as determined by IVIS (trademark). Luminescence value measurement by IVIS (trademark) and body weight measurement were performed twice a week.
For NALM6-luc2, after resuspension, a portion of the cell suspension was taken, dead cells were stained with AOPI Staining Solution, and the number of viable cells was counted with a blood cell measuring device. A cell suspension was prepared by diluting the cells with RPMI 1640 to 1×10^7 cells/mL, based on the measurement results of viable cell count of the cells. Similarly, in a low tumor volume system, a cell suspension was prepared by diluting the cells with serum-free RPMI 1640 to achieve a concentration of 1×10^6 cells/mL.
After the mice were retained using a retainer, a cell suspension was transplanted at 1×10^6 cells/0.1 mL/body using a 27G Myjector (1 mL, produced by Terumo Corporation) to the tail vein of each mouse with no anesthesia. In the low tumor volume system, a cell suspension at 1×10^5 cells/0.1 mL/body was transplanted.
In accordance with the dosing regimen shown in FIG. 6, NALM6-luc2 was transplanted the day after treating the […] with busulfex. On the third day after the transplantation, luminescence values were measured using the IVIS (trademark) Lumina X5 In-Vivo imaging system (produced by PerkinElmer, Co., Ltd.). Using the luminous values as an indicator and using SAS software R9.4 (produced by SAS Institute Japan), the mice were divided into groups of 5 mice each by the stratified random sampling method.
1) A suspension of CD19 CAR-T cells was administered to the tail vein at the time of grouping. For the dosage, the number of viable CD19 CAR-T cells was counted and a cell suspension prepared according to the group constitution table was administered once at 0.1 mL/body. For the administration, a Myjector syringe with a 27G needle was used.
5) Birinapant was intraperitoneally administered at a dose of 10 mL/kg according to the group composition table. Tolinapant, LCL161, and AT406 were orally administered at a dose of 10 mL/kg according to the group composition table using a sonde in the same manner. For intraperitoneal administration, an insulin syringe with a 26G needle was used in place of the sonde. For oral administration, a needle was used in place of the sonde to administer each drug.
VivoGlo™-luciferin (produced by Promega) was dissolved in D-PBS(−) to achieve a concentration of 30 mg/mL and then cryopreserved at −20° C. under light-shielded conditions. On the day of measurement, dissolved VivoGlo™-luciferin was diluted with an equivalent amount of D-PBS(−) and stored at room temperature under light-shielded conditions until use for testing. Based on the body weight measured in advance, VivoGlo™-luciferin was intraperitoneally administered in a volume of 10 mL/kg.

MDA-MB-231 = conditions: 16 mg/kg, daily oral administration; References 1 and 2; cited from earlier work
NALM6-luc2 [2] = test: Combination of tolinapant and CD19 CAR-T against a low volume of tumor (NALM6-luc2, NOG mice); type: in vivo, mouse
Description: For the measurement, IVIS (trademark) Lumina X5 was used.

NALM6 = test: Combination of tolinapant and CD19 CAR-KHYG-1 in NALM6 subcutaneous tumor-bearing NOG mice; type: in vivo, mouse
Protocol: Each mouse was identified with a number attached to the tail of the mouse. During the breeding period, the mice were housed in groups of 5 mice each and bred in a breeding room at a temperature of 24° C.
After grouping, CD19 CAR KHYG-1 cells and KHYG-1 cells were intratumorally administered 4 times in total according to the group constitution.
The evaluation period was set up to day 17. Grouping and pharmacological evaluation were performed using the results of tumor volume measurement with a caliper as an indicator. The tumor volume measurement and body weight measurement were performed twice a week and before each administration. […]
On the 21th day after the transplantation, the long diameter and the short diameter were measured and the tumor volume was calculated. […]
4) For KHYG-1 cell administration solution and CD19 CAR-KHYG-1 cell administration solution, the number of viable cells was counted and a cell suspension with the cell density being adjusted according to the group composition table was prepared and intratumorally administered twice a week at 0.1 mL/body (4 times in total).
The tumor diameter was determined by measuring the short diameter and the long diameter using an electronic caliper (produced by Mitutoyo Corporation). After tumor cell transplantation, the tumor diameter was measured twice a week. […]

[3] = combined use with CD19 CAR-T, AUC up to day 14
[4] = combined use with CD19 CAR-T, AUC up to day 17
[5] = combined use with CD19 CAR-T, maximum tumor volume (luminescence value)
[6] = tolinapant 16 mg/kg qd po + CD19 CAR-T 1×10^5 cells/body iv

**Q.** Which results are given for `C[C@@H]1CN(CC(=O)N2CC(C)(C)c3nc(CO)c(Cc4ccc(F)cc4)cc32)[C@@H](CN2CCOC[C@H]2C)CN1` [Tolinapant, 1-[6-[(4-fluorophenyl)methyl]-5-(hydroxymethyl)-3,3-dimethyl-2H-pyrrolo[3,2-b]pyridin-1-yl]-2-[(2R,5R)-5-methyl-2-[[(3R)-3-methylmorpholin-4-yl]methyl]piperazin-1-yl]ethanone]?
**A.** maximum effect / drug efficacy-enhancement effect of combination with tolinapant compared with other IAP antagonists (NALM6-luc2 [1]; combination with CD19 CAR-T, versus AT406, LCL161, birinapant): the combination with tolinapant was superior; also recorded: a higher drug efficacy-enhancement effect than combinations with any other IAP antagonist; t-Test using AUC as an indicator (day 14), Tolinapant versus AT406 (NALM6-luc2 [1]; [3]): <0.05; t-Test using AUC as an indicator (day 14), Tolinapant versus Birinapant (NALM6-luc2 [1]; [3]): <0.05; t-Test using AUC as an indicator (day 14), Tolinapant versus LCL161 (NALM6-luc2 [1]; [3]): <0.05; t-Test using AUC as an indicator (day 17), Tolinapant versus AT406 (NALM6-luc2 [1]; [4]): <0.05; t-Test using AUC as an indicator (day 17), Tolinapant versus Birinapant (NALM6-luc2 [1]; [4]): <0.05; t-Test using AUC as an indicator (day 17), Tolinapant versus LCL161 (NALM6-luc2 [1]; [4]): <0.05; t-Test using AUC as an indicator (day 17), Tolinapant versus AT406 (NALM6-luc2 [1]; combined use with CD19 CAR-T, AUC up to day 17, listed as tolinapant): a significance due to combined use of tolinapant could be observed; t-Test using the maximum tumor volume as an indicator, Tolinapant versus AT406 (NALM6-luc2 [1]; [5]): <0.05; t-Test using the maximum tumor volume as an indicator, Tolinapant versus Birinapant (NALM6-luc2 [1]; [5]): <0.05; t-Test using the maximum tumor volume as an indicator, Tolinapant versus LCL161 (NALM6-luc2 [1]; [5]): <0.05; t-Test using the maximum tumor volume as an indicator, Tolinapant versus AT406 (NALM6-luc2 [1]; combined use with CD19 CAR-T, maximum tumor volume (luminescence value), listed as tolinapant): a significant difference; effect of tolinapant + 1×10^5 cells CD19 CAR-T compared with 1×10^6 cells CD19 CAR-T alone (NALM6-luc2 [1]; [6]): an effect equivalent to the effect achieved by using 1×10^6 cells of CD19 CAR-T alone was observed on day 14; also recorded: better tumor regression was observed on day 14 and thereafter; combination effect of tolinapant and CD19 CAR-T (tumor luminescence value) (NALM6-luc2 [1]; tolinapant 16 mg/kg qd po + CD19 CAR-T 1×10^5 cells/body iv, versus tolinapant only or CD19 CAR-T only): significantly improved effect (p<0.05); also recorded: a significant combination effect was observed on day 7 and thereafter; also recorded: significant, highly reproducible results; efficacy of tolinapant administered alone (NALM6-luc2 [1]; tolinapant alone, 16 mg/kg, daily oral administration): showed no efficacy; also recorded: no effect; efficacy of tolinapant in MDA-MB-231 xenograft mice (MDA-MB-231): exhibited efficacy; reduction in the number of CAR-T cells achieved by the combination (NALM6-luc2 [2]; 2×10^4 cells + tolinapant versus 1×10^6 cells alone, suggested possibility): at least 50 fold; combination effect of tolinapant and CD19 CAR-T on a low volume of tumor (NALM6-luc2 [2]; tolinapant 16 mg/kg qd po + CD19 CAR-T): a strong combination effect was observed; effect of tolinapant + 1×10^5 cells CD19 CAR-T compared with 1×10^6 cells CD19 CAR-T alone (NALM6-luc2 [2]; [6]): an effect equivalent to the effect achieved by using 1×10^6 cells of CD19 CAR-T alone was observed on day 17; effect of tolinapant + 2×10^4 cells CD19 CAR-T compared with 1×10^6 cells CD19 CAR-T alone (NALM6-luc2 [2]; tolinapant 16 mg/kg qd po + CD19 CAR-T 2×10^4 cells/body iv): an effect equivalent to the effect achieved by using 1×10^6 cells of CD19 CAR-T alone was observed on day 21; combination effect of tolinapant and CD19 CAR-KHYG-1 (tumor volume) (NALM6; tolinapant 16 mg/kg po every day + CD19 CAR-KHYG-1 1×10^7 cells/body intratumoral Day 0, 4, 7, 11, evaluated for 17 days): A significant combination effect was observed; also recorded: a proliferation suppression effect was clearly shown on day 7 and thereafter; also recorded: significant combination effects were observed on day 17; also recorded: significant, highly reproducible results; antitumor effect of tolinapant alone (NALM6; tolinapant alone, 16 mg/kg po every day): no antitumor effects were observed
